Results taken from patent US20110245283A1, “Methods for predicting the response to statins” (priority 2009, published 2011).
Like-named read-outs stand apart in the source and are kept apart here.

Experiments:
LDL [1] = conditions: cited from earlier work
LDL [2] = test: Logistic regression models of attaining LDL goal: odds ratios for concurrent or prior drug doses; assay type: in vivo, patients
Description: G. Covariates for the multivariate model—The following list includes the predictors one or more of which may be tested in the multivariate models. • 1. AGE: (expressed in units of 10 years) at time that the new statin prescription was released • 2. GENDER, E. G., MALE: 1=yes, 0=no • 3. BMI (kg/M^2): last value before release date • 4. HBA1C (hemoglobin Alc): last value before release date • 5. PLDL: preceding LDL level expressed in e.g. 10 mg/dl units • 6. Statins • a. PLOVA: prior daily dose of lovastatin expressed in e.g. 10 mg units • b. […] For additional drugs: • a. AMIODOSE: amiodarone dose in mg/day • b. CARBDOSE: carbemazepine dose in mg/day • c. PIOGDOSE: pioglitazone dose expressed as number of 15 mg doses per day • d. […] METFDOSE: metformin dose expressed as number of 1000 mg doses per day • f. PHENDOSE: phenyloin dose in mg/day • g. RISPDOSE: risperidone dose in mg/day • h. ROSIDOSE: rosiglitazone dose in mg/day • i.
Body mass index (BMI) was chosen as a covariate of statin response because obese patients tend to consume a diet high in cholesterol. It was hypothesized that they would respond less well to statins because their hypercholesterolemia was more likely to be mediated by dietary indiscretion than excessive LDL synthesis. […] Metformin and the thiazolidinediones were chosen because they reduce LDL levels in diabetic patients through mechanisms that may or may not be affected by concurrent statin treatment. The remaining non-statin drugs were chosen because they are commonly used drugs that potentiate the effect of statins. They were selected by reviewing the official on-line VA pharmaceutical reference (Micromedex®) for major interactions mediated by impaired statin metabolism. […] The daily dose of the non-statin drug was calculated by the method described in Section B.
H. Assembling the predictor file—The patient identifier was used to link the new statin prescription type and dose, the preceding LDL above goal, and the type and dose of the previous statin (if any) with the patient's most recent HbA1c, most recent BMI, and the daily doses of 9 drugs with major statin interactions that were active at the time the new prescription was released.
The dependent variable was attainment of goal (LDL <100 mg/dl). […] Step selections were based upon the maximal likelihood method with α<0.15 to enter and ≧0.15 to remove.

LDL [3] = test: Proportion of CAD patients attaining LDL goal (<100 mg/dl) on a statin dose; validation sets stratified by predicted probability; conditions: for Proportion of patients achieving goal: validation set; for Chance of success (reaching goal) of any dose choice: this study
[4] = odds of goal LDL <100 mg/dl, Lovastatin 20 mg [A] model (includes HbA1c; n = 595), per dose increment
[5] = odds of goal, Lovastatin 20 mg [B] model (excludes HbA1c; n = 733), per dose increment
[6] = odds of goal, Lovastatin 40 mg model (n = 764), per dose increment
[7] = odds of goal, Simvastatin 10 mg [A] model (no previous treatment; n = 172), per dose increment
[8] = odds of goal, Simvastatin 10 mg [C] model (excludes BMI; n = 219), per dose increment
[9] = odds of goal, Simvastatin 40 mg model (n = 698), per dose increment

Compound: CC(C)n1c(/C=C/C(O)CC(O)CC(=O)O)c(-c2ccc(F)cc2)c2ccccc21 (centres unmarked) [Fluva, fluvastatin]
- Average LDL reduction (LDL [1]; Dose 20 mg): 17%
- Average LDL reduction (LDL [1]; Dose 40 mg): 23%
- Average LDL reduction (LDL [1]; Dose 80 mg): 33%

Compound: CN(C)C(=N)N=C(N)N [Metformin, metformin]
- Odds ratio for concurrent treatment (LDL [2]; for every 1,000 mg daily, 2 models): 1.3
- OR (LDL [2]; [4]): 1.30
- OR (LDL [2]; [5]): 1.26
- OR (LDL [2]; [6]): 1.22
- OR (LDL [2]; [7]): 1.84
- OR (LDL [2]; [8]): 1.98
- OR (LDL [2]; [9]): 1.31
- Increase of odds of reaching goal (LDL [2]; patient taking metformin, simvastatin 40 mg model): 30%

Compound: CCc1ccc(CCOc2ccc(CC3SC(=O)NC3=O)cc2)nc1 (centres unmarked) [Pioglitazone, pioglitazone]
- OR (LDL [2]; [5]): 2.06

Compound: CC(C)c1nc(N(C)S(C)(=O)=O)nc(-c2ccc(F)cc2)c1/C=C/[C@@H](O)C[C@@H](O)CC(=O)O [Rosuva, rosuvastatin]
- Average LDL reduction (LDL [1]; Dose 5 mg): 43%
- Average LDL reduction (LDL [1]; Dose 10 mg): 50%
- Average LDL reduction (LDL [1]; Dose 20 mg): 53%
- Average LDL reduction (LDL [1]; Dose 40 mg): 62%

Compound: CC[C@H](C)C(=O)O[C@H]1C[C@H](O)C=C2C=C[C@H](C)[C@H](CC[C@@H](O)C[C@@H](O)CC(=O)O)[C@H]21 [Prava, pravastatin]
- Average LDL reduction (LDL [1]; Dose 10 mg): 19%
- Average LDL reduction (LDL [1]; Dose 20 mg): 24%
- Average LDL reduction (LDL [1]; Dose 40 mg): 34%
- Average LDL reduction (LDL [1]; Dose 80 mg): 40%

Compound: CC(C)c1c(C(=O)Nc2ccccc2)c(-c2ccccc2)c(-c2ccc(F)cc2)n1CC[C@@H](O)C[C@@H](O)CC(=O)O [Atorva, atorvastatin]
- Average LDL reduction (LDL [1]; Dose 10 mg): 36%
- Average LDL reduction (LDL [1]; Dose 20 mg): 46%
- Average LDL reduction (LDL [1]; Dose 40 mg): 51%
- Average LDL reduction (LDL [1]; Dose 80 mg): 54%

Compound: COc1ccc([C@@H]2Sc3ccccc3N(CCN(C)C)C(=O)[C@@H]2OC(C)=O)cc1 [Diltiazem, diltiazem]
- Increase of odds of reaching goal (LDL [2]; for every 120 mg per day diltiazem, lovastatin 20 mg model): 70%
- OR (LDL [2]; [4]): 1.44
- OR (LDL [2]; [5]): 1.69
- OR (LDL [2]; [6]): 1.35
- OR (LDL [2]; [7]): 1.78
- OR (LDL [2]; [8]): 1.76
- OR (LDL [2]; [9]): 1.70

Compound: CCC(C)(C)C(=O)O[C@H]1C[C@@H](C)C=C2C=C[C@H](C)[C@H](CC[C@@H]3C[C@@H](O)CC(=O)O3)[C@H]21 [Simvastatin, simvastatin]
- Reduction of odds of reaching goal (LDL [2]; for every 10 mg/day in the previous simvastatin dose, simvastatin 20 model): 70%
- OR (LDL [2]; odds of goal, Model 1, Simvastatin 10 mg, per 10 mg/day): 0.130
- OR (LDL [2]; odds of goal, Model 1, Simvastatin 20 mg, per 10 mg/day): 0.355
- OR (LDL [2]; odds of goal, Model 1, Simvastatin 40 mg, per 10 mg/day): 0.771
- OR (LDL [2]; odds of goal, Model 1, Simvastatin 80 mg, per 10 mg/day): 0.900
- OR (LDL [2]; odds of goal, Simvastatin 10 mg [B] model (includes BMI; n = 136), per dose increment): 0.0593
- OR (LDL [2]; [8]): 0.149
- OR (LDL [2]; odds of goal, Simvastatin 20 mg model (n = 374), per dose increment): 0.356
- OR (LDL [2]; [9]): 0.788
- OR (LDL [2]; odds of goal, Simvastatin 80 mg model (n = 481), per dose increment): 0.887
- Proportion of patients achieving goal (LDL [3]; Model 1, simvastatin 10 mg, predicted probability 0-19%): 14.3%
- Proportion of patients achieving goal (LDL [3]; Model 1, simvastatin 10 mg, predicted probability 20-39%): 31.8%
- Proportion of patients achieving goal (LDL [3]; Model 1, simvastatin 10 mg, predicted probability 40-59%): 57.6%
- Proportion of patients achieving goal (LDL [3]; Model 1, simvastatin 10 mg, predicted probability 60-79%): 69.7%
- Proportion of patients achieving goal (LDL [3]; Model 1, simvastatin 10 mg, predicted probability 80-100%): 100%
- Proportion of patients achieving goal (LDL [3]; Model 1, simvastatin 20 mg, predicted probability 0-19%): 11.1%
- Proportion of patients achieving goal (LDL [3]; Model 1, simvastatin 20 mg, predicted probability 20-39%): 32.9%
- Proportion of patients achieving goal (LDL [3]; Model 1, simvastatin 20 mg, predicted probability 60-79%): 66.2%
- Proportion of patients achieving goal (LDL [3]; Model 1, simvastatin 40 mg, Overall): 57.0%
- Proportion of patients achieving goal (LDL [3]; Model 1, simvastatin 40 mg, predicted probability 0-19%): 36.4%
- Proportion of patients achieving goal (LDL [3]; Model 1, simvastatin 40 mg, predicted probability 20-39%): 30.4%
- Proportion of patients achieving goal (LDL [3]; Model 1, simvastatin 40 mg, predicted probability 40-59%): 54.2%
- Proportion of patients achieving goal (LDL [3]; Model 1, simvastatin 40 mg, predicted probability 60-79%): 67.2%
- Proportion of patients achieving goal (LDL [3]; Model 1, simvastatin 40 mg, predicted probability 80-100%): 0%
- Proportion of patients achieving goal (LDL [3]; Model 1, simvastatin 80 mg, Overall): 61.9%
- Proportion of patients achieving goal (LDL [3]; Model 1, simvastatin 80 mg, predicted probability 20-39%): 42.7%
- Proportion of patients achieving goal (LDL [3]; Model 1, simvastatin 80 mg, predicted probability 40-59%): 42.7%
- Proportion of patients achieving goal (LDL [3]; Model 1, simvastatin 80 mg, predicted probability 60-79%): 68.9%
- Proportion of patients achieving goal (LDL [3]; Model 1, simvastatin 80 mg, predicted probability 80-100%): 74.3%
- Proportion of patients achieving goal (LDL [3]; Simvastatin 10 mg [A] model, predicted probability 0-19%): 8.3%
- Proportion of patients achieving goal (LDL [3]; Simvastatin 10 mg [A] model, predicted probability 20-39%): 29.7%
- Proportion of patients achieving goal (LDL [3]; Simvastatin 10 mg [A] model, predicted probability 40-59%): 62.1%
- Proportion of patients achieving goal (LDL [3]; Simvastatin 10 mg [A] model, predicted probability 60-79%): 68.6%
- Proportion of patients achieving goal (LDL [3]; Simvastatin 10 mg [A] model, predicted probability 80-100%): 75.0%
- Proportion of patients achieving goal (LDL [3]; Simvastatin 10 mg [B] model, Overall): 52.1%
- Proportion of patients achieving goal (LDL [3]; Simvastatin 10 mg [B] model, predicted probability 0-19%): 10.0%
- Proportion of patients achieving goal (LDL [3]; Simvastatin 10 mg [B] model, predicted probability 20-39%): 26.3%
- Proportion of patients achieving goal (LDL [3]; Simvastatin 10 mg [B] model, predicted probability 40-59%): 58.8%
- Proportion of patients achieving goal (LDL [3]; Simvastatin 10 mg [B] model, predicted probability 60-79%): 70.6%
- Proportion of patients achieving goal (LDL [3]; Simvastatin 10 mg [B] model, predicted probability 80-100%): 100%
- Proportion of patients achieving goal (LDL [3]; Simvastatin 10 mg [C] model, predicted probability 0-19%): 11.8%
- Proportion of patients achieving goal (LDL [3]; Simvastatin 10 mg [C] model, predicted probability 20-39%): 31.8%
- Proportion of patients achieving goal (LDL [3]; Simvastatin 10 mg [C] model, predicted probability 40-59%): 60.0%
- Proportion of patients achieving goal (LDL [3]; Simvastatin 10 mg [C] model, predicted probability 60-79%): 74.2%
- Proportion of patients achieving goal (LDL [3]; Simvastatin 10 mg [C] model, predicted probability 80-100%): 75.0%
- Proportion of patients achieving goal (LDL [3]; Simvastatin 20 mg [C] model, predicted probability 0-19%): 10.5%
- Proportion of patients achieving goal (LDL [3]; Simvastatin 20 mg [C] model, predicted probability 20-39%): 35.1%
- Proportion of patients achieving goal (LDL [3]; Simvastatin 20 mg [C] model, predicted probability 60-79%): 65.3%
- Proportion of patients achieving goal (LDL [3]; Simvastatin 40 mg model, Overall): 57.4%
- Proportion of patients achieving goal (LDL [3]; Simvastatin 40 mg model, predicted probability 0-19%): 20.0%
- Proportion of patients achieving goal (LDL [3]; Simvastatin 40 mg model, predicted probability 20-39%): 38.6%
- Proportion of patients achieving goal (LDL [3]; Simvastatin 40 mg model, predicted probability 40-59%): 54.6%
- Proportion of patients achieving goal (LDL [3]; Simvastatin 40 mg model, predicted probability 60-79%): 67.0%
- Proportion of patients achieving goal (LDL [3]; Simvastatin 40 mg model, predicted probability 80-100%): 65.0%
- Proportion of patients achieving goal (LDL [3]; Simvastatin 80 mg model, Overall): 61.9%
- Proportion of patients achieving goal (LDL [3]; Simvastatin 80 mg model, predicted probability 20-39%): 41.7%
- Proportion of patients achieving goal (LDL [3]; Simvastatin 80 mg model, predicted probability 40-59%): 41.9%
- Proportion of patients achieving goal (LDL [3]; Simvastatin 80 mg model, predicted probability 60-79%): 72.8%
- Proportion of patients achieving goal (LDL [3]; Simvastatin 80 mg model, predicted probability 80-100%): 70.8%
- Chance of success (reaching goal) of any dose choice (LDL [3]; all choices except 80 mg daily): ≤ 60%
- Chance of success (reaching goal) of any dose choice (LDL [3]; all doses): ≤ 62%
